pIC50: −log10 of the molar value.

For one test, the system named is MiaPaca-2 cells. Kind of test: MiaPaca-2 Cell Proliferation Assay. The test is classed as cell-based. To be noted: Homo sapiens, MIA PaCa-2; Table 4; read-out: MiaPaca-2 IC50. How it is done: MiaPaca-2 cells (catalog #CRL-1420) are obtained from the American Type Culture Collect (ATTC, Manassas, VA). Briefly, cells were grown in DMEM supplemented with 10% characterized fetal bovine serum (Invitrogen, Carlsbad, CA), 2.5% New Zealand sourced horse serum and 1% Penicillin/Streptomycin/L-Glutamine at 37° C., 5% CO2, and 95% humidity. Cells are expanded until reaching 70-95% confluency at which point they are sub-cultured or harvested for assay use. For assays completed in 96-well plates, a serial dilution of test compound is dispensed into a 96-well black clear bottom plate in triplicate. Three thousand cells are added per well in 200 μL complete growth medium in the 96-well plate. Plates are incubated for 67 to 72 h at 37° C., 5% CO2, and 95% humidity. At the end of the incubation, 40 μL of a […] solution of resazurin (Sigma, St. Louis, MO) in PBS is added to each well of the plate and plates are incubated for an additional 5 to 6 hours at 37° C., 5% CO2, and 95% humidity. For 384-well assays, a threefold, 8-point serial dilution of compound was spotted column wise into a 384 well black, clear bottom, tissue culture treated plate using the Beckman Coulter Echo 650. Likewise, a threefold, 8-point serial dilution of cobimetinib was spotted row wise into the 384 well black, clear bottom plate containing compound. DMSO concentration was constant across all wells at 0.4%. Seven hundred fifty cells are added per well in 50 μL complete growth medium in each 384-well plate. Plates are incubated for 67 to 72 h at 37° C., 5% CO2, and 95% humidity. At the end of the incubation, 10 μL of a 440 μM solution of resazurin (Sigma, St. Louis, MO) in PBS is added to each well of the plate and plates are incubated for an additional 4 to 6 h at 37° C., 5% CO2, and 95% humidity. Plates are read on a Synergy2 or equivalent reader (Biotek, Winooski VT) using an excitation of 540 nm and an emission of 600 nm. Data is analyzed using Prism software (Graphpad, San Diego, CA) to calculate IC50 values.

In the next test the test system is HCT-116 cells. Kind of test: HCT-116 Cell Proliferation Assay. The test is classed as cell-based. To be noted: Homo sapiens, HCT-116; Table 4; read-out: HCT-116 IC50. How it is done: HCT-116 cells (catalog #CCL-247) are obtained from the American Type Culture Collect (ATCC, Manassas, VA). Briefly, cells are grown in McCoy's 5A supplemented with 10% characterized fetal bovine serum (Invitrogen, Carlsbad, CA) and 1% Penicillin/Streptomycin/L-Glutamine at 37° C., 5% CO2, and 95% humidity. Cells are expanded until reaching 70-95% confluency at which point they are sub-cultured or harvested for assay use. A serial dilution of test compound is dispensed into a 384-well black clear bottom plate in triplicate. 375 cells are added per well in 50 μL complete growth medium in the 384-well plate. Plates are incubated for 67 to 72 h at 37° C., 5% CO2, and 95% humidity. At the end of the incubation, 40 μL of a […] solution of resazurin (Sigma, St. Louis, MO) in PBS is added to each well of the plate and plates are incubated for an additional 4 to 5 hours at 37° C., 5% CO2, and 95% humidity. Plates are read on a Synergy2 or equivalent reader (Biotek, Winooski, VT) using an excitation of 540 nm and an emission of 600 nm. Data is analyzed using Prism software (Graphpad, San Diego, CA) to calculate IC50 values.

The subject of another test is HPAF-II cells. The test can be described thus: HPAF-II Cell Proliferation Assay. The test is classed as cell-based. To be noted: Homo sapiens, HPAF-II; Table 4; read-out: HPAF-II IC50. How it is done:
HPAF-II cells (catalog #CRL-1997) are obtained from the American Type Culture Collect (ATCC, Manassas, VA). Briefly, cells are grown in Minimum Essential Media supplemented with 10% characterized fetal bovine serum (Invitrogen, Carlsbad, CA) and 1% Penicillin/Streptomycin/L-Glutamine at 37° C., 5% CO2, and 95% humidity. Cells are expanded until reaching 70-95% confluency at which point they are sub-cultured or harvested for assay use. A serial dilution of test compound is dispensed into a 384-well black clear bottom plate in triplicate. 750 cells are added per well in 50 μL complete growth medium in the 384-well plate. Plates are incubated for 115 to 120 h at 37° C., 5% CO2, and 95% humidity. At the end of the incubation, 40 μL of a […] solution of resazurin (Sigma, St. Louis, MO) in PBS is added to each well of the plate and plates are incubated for an additional 18 to 24 h at 37° C., 5% CO2, and 95% humidity. Plates are read on a Synergy2 or equivalent reader (Biotek, Winooski, VT) using an excitation of 540 nm and an emission of 600 nm. Data is analyzed using Prism software (Graphpad, San Diego, CA) to calculate IC50 values.

The target of the next test is T1, B-Raf kinase (Homo sapiens, UniProt P15056).
T1 construct: GST (N); purchased Sigma
T1 sequence (P15056 416-766): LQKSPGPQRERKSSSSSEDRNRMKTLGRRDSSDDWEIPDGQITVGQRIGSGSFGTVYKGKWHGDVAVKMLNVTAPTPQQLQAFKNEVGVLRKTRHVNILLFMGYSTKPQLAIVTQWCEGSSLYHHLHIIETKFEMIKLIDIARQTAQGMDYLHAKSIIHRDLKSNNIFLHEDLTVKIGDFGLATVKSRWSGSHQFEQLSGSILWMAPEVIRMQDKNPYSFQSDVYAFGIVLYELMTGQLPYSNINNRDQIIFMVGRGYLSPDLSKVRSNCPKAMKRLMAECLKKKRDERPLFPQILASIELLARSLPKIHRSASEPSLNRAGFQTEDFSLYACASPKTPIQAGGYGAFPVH
Kind of test: Biochemical Assay for B-Raf (coupled pyruvate kinase/lactate dehydrogenase assay). Conditions: Table 4; read-out: BRAF IC50.

The target of a further test is T2, C-Raf kinase (Homo sapiens, UniProt P04049, Y340D/Y341D).
T2 construct: C-Raf residues 306-end; Y340D, Y341D with N-; GST (N); purchased Eurofins
T2 sequence (P04049 307-648 Y340D/Y341D): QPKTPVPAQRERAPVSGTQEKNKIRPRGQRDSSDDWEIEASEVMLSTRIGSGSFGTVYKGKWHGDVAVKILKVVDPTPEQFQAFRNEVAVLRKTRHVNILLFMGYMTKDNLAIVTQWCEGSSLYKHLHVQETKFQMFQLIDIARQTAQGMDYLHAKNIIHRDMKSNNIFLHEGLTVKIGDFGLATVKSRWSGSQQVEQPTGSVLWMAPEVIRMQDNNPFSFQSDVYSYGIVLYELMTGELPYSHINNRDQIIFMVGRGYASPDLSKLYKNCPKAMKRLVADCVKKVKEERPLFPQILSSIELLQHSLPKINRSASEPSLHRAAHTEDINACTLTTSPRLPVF
The test can be described thus: Biochemical Assay for C-Raf (coupled pyruvate kinase/lactate dehydrogenase assay). Conditions: Table 4; read-out: CRAF IC50.

A further test deals with tubulin. The test can be described thus: Cellular Tubulin Polymerization Assay (HCT-116 cells). Format: cell-based. To be noted: Table 4, HCT-116 cells; read-out: Tubulin Cellular IC50.

As a reminder, the pIC50 is −log10 of the IC50, conventionally taken in molar units. As to `Cc1ccc(NC(=O)NC2CCCCCC2)cc1-c1cc(OCCO)nc(N2CCOCC2)c1` [reference compound], the pIC50 in the test with MiaPaca-2 cells, with HCT-116 cells and in the test on HPAF-II cells was 5.00 to 6.00 throughout.
Take `Cc1ccc(NC(=O)N[C@@H]2CCc3ccccc32)cc1-c1cc(OCCO)nc(N2CCOCC2)c1` [reference compound]: the pIC50 in the test on MiaPaca-2 cells, in the test on HCT-116 cells and in the test with HPAF-II cells was 5.00 to 6.00 in each case.
On to `Cc1cc(F)c(NC(=O)Nc2cnn(C(C)(C)C)c2)cc1-c1cc(OCCN(C)C)nc(N2CCOCC2)c1` [reference compound], for which the pIC50 in the test with MiaPaca-2 cells, with HCT-116 cells and in the test with HPAF-II cells was 5.00 to 6.00 in each case.
As for `Cc1ccc(NC(=O)Nc2cn(C)nc2C(F)(F)F)cc1-c1cc(OCCO)nc(N2CCOCC2)c1` [reference compound], the pIC50 on B-Raf kinase, at C-Raf kinase, in the test on HCT-116 cells and in the test on HPAF-II cells was 5.00 to 6.00 throughout.
`Cc1ccc(NC(=O)Nc2cnn(CC(F)(F)F)c2)cc1-c1cc(OCCO)nc(N2CCOCC2)c1` [reference compound]: the pIC50 at B-Raf kinase, in the test on HCT-116 cells and with HPAF-II cells was 5.00 to 6.00 each time.
For `CC(=O)Nc1cc(-c2cc(-c3cc(NC(=O)Nc4ccc(C(F)(F)F)cc4)cnc3C)ccn2)ccn1` [reference compound], the pIC50 in the test on HCT-116 cells, with HPAF-II cells and in the test with tubulin was 5.00 to 6.00 each time.
In the case of `CC(=O)Nc1cc(-c2cc(-c3cc(NC(=O)NC4CCC(F)(F)CC4)c(F)cc3C)cc(OCCO)n2)ccn1` [reference compound], the pIC50 in the test with HCT-116 cells and in the test with HPAF-II cells was 6.00 to 6.30 each time.
As to `CNC(=O)c1cc(-c2cc(-c3cc(NC(=O)Nc4ccnc(C(C)(C)C#N)c4)ccc3C)ccn2)ccn1` [reference compound], the results for the pIC50 with MiaPaca-2 cells, with HCT-116 cells and in the test on tubulin were 6.00 to 6.30, 5.00 to 6.00 and 5.00 to 6.00, respectively.
On to `CNC(=O)c1cc(-c2cnnc(-c3cc(NC(=O)N4CCC(C(C)(C)C)C4)ccc3C)c2)ccn1` (centres unmarked) [reference compound], for which the pIC50 in the test with MiaPaca-2 cells, in the test on HCT-116 cells and in the test on HPAF-II cells was 5.00 to 6.00 throughout.
As to `CNC(=O)c1cc(-c2cc(-c3cc(NC(=O)NC4CCCCC4)c(F)cc3C)cc(OCCO)n2)ccn1` [reference compound], the negative logarithm of the IC50 (pIC50) with HCT-116 cells and in the test on HPAF-II cells was 5.00 to 6.00 throughout.

These data come from US20260176279A1, “DUAL RAF AND TUBULIN INHIBITORS AND METHODS OF USE THEREOF” (Deciphera Pharmaceuticals, LLC, priority 2023, published 2026).
